Where two headings read alike, the source gives them in different places.
How the values were obtained:
debranching enzyme = molecular target: T1, debranching enzyme (Homo sapiens, UniProt P35573); experiment: Debranching enzyme activity, glucose release from limit dextrin, erythrocyte homogenate; format: biochemical; conditions: read-out: IC50 value for inhibition of Debranching enzyme
T1 construct: As enzyme source erythrocytes are used since they contain no other enzymes that can degrade glycogen or limit dextrin; from tissue; host or cells: erythrocyte homogenate

lactase = molecular target: T2, lactase (Rattus norvegicus, UniProt Q02401); experiment: In vitro lactase activity, intestinal membrane preparation; format: biochemical; conditions: rat intestinal membranes; read-out: IC50 value for inhibition of Lactase
T2 construct: Membrane homogenates were prepared by extensive washing and homogenization; from tissue; host or cells: rat intestinal membrane homogenate
T2 sequence (Q02401 868-1928): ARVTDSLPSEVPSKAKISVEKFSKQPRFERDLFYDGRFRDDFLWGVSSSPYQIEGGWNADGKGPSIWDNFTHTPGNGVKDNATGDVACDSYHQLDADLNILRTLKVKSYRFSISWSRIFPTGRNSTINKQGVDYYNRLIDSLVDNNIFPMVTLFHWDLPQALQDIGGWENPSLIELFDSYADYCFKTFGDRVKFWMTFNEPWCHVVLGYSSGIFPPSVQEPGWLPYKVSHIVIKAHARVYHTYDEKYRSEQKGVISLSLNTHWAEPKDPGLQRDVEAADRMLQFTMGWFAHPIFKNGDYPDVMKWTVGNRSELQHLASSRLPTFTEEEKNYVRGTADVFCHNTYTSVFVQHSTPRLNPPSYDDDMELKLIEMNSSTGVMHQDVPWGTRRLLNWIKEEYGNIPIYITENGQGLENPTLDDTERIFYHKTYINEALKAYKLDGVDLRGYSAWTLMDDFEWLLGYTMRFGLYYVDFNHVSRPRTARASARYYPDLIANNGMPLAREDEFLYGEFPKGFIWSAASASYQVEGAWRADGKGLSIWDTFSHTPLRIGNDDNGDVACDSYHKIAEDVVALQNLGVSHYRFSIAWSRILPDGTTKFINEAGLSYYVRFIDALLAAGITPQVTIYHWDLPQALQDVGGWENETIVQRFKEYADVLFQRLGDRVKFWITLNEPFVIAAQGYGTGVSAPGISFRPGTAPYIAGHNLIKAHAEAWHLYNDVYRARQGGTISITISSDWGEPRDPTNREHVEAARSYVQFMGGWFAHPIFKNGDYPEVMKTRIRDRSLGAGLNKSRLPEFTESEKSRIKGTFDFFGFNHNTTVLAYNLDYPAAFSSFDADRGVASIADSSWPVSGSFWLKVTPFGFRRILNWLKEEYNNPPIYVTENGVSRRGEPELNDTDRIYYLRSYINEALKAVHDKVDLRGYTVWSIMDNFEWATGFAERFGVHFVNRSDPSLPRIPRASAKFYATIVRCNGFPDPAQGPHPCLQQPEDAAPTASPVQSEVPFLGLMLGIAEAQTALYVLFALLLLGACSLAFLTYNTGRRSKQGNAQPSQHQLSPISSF

[1] = test system: C57BL/6J mice (ob-/-, db-/-, +/+); experiment: Oral treatment of obese, diabetes and normal C57BL/6J mice: glucose and water intake; format: in vivo
Method: Plasma glucose, water intake and food intake were monitored.
Mice (obese-lep^ob (C57B1/6)laHsd-Lep^ob); diabetes-lepr^db (C57B1/6KsOlaHsd—Lepr^db); wildtype (C57B1/6J OlaHsd) and wild type FVB (FVB/NHanHsd) were obtained from Harlan Nederland. Animals were fed with AM-II diet with or without N-(5-adamantane-1-yl-methoxy-pentyl)deoxynojirimycin (Hope Farms Netherlands). Mice were kept in groups of five in each cage. Water consumption and food intake were determined three times weekly per cage. Body weight of individual animals was determined three times weekly. Glucose in plasma was determined with the GOD-PAP method (Merck), and glucose in urine was determined using […] test strips (Roche).

[2] = Plasma level and tissue penetration after oral dosing; format: in vivo, mice
[3] = test system: cultured adipocytes and muscle cells; experiment: Insulin signaling in cultured adipocytes and muscle cells (GLUT4, deoxyglucose uptake); format: cell-based
Description: Initial experiments already confirmed this effect.

[4] = Tolerability in animal studies; format: in vivo
surface GM3 = experiment: Surface GM3 expression by FACS after 3 days exposure of cells; format: cell-based; conditions: 72 h, cells exposed for 3 days, read-out: IC50 value for surface GM3 reduction
sucrase = molecular target: T3, sucrase (Rattus norvegicus, UniProt P23739); experiment: In vitro sucrase activity, intestinal membrane preparation; format: biochemical
T3 construct: Membrane homogenates were prepared by extensive washing and homogenization; from tissue; host or cells: rat intestinal membrane homogenate

[5] = Pharmacological features (bioavailability, metabolism); conditions: in vivo
FVB and C57BL/6J mice = experiment: Tissue (glyco)sphingolipid levels in orally treated FVB and C57BL/6J mice (HPLC, TLC)
[6] = many individuals; cited from earlier work
[7] = molecular target: glycan trimming α-glucosidase; conditions: cited from earlier work
[8] = obese and diabetes mice, administration by food, dose-dependent
[9] = intestinal sucrase, read-out: IC50 value for sucrase
[10] = rat intestinal membranes, read-out: IC50 value for inhibition of Sucrase

T3 sequence (P23739 1014-1841 limits assumed): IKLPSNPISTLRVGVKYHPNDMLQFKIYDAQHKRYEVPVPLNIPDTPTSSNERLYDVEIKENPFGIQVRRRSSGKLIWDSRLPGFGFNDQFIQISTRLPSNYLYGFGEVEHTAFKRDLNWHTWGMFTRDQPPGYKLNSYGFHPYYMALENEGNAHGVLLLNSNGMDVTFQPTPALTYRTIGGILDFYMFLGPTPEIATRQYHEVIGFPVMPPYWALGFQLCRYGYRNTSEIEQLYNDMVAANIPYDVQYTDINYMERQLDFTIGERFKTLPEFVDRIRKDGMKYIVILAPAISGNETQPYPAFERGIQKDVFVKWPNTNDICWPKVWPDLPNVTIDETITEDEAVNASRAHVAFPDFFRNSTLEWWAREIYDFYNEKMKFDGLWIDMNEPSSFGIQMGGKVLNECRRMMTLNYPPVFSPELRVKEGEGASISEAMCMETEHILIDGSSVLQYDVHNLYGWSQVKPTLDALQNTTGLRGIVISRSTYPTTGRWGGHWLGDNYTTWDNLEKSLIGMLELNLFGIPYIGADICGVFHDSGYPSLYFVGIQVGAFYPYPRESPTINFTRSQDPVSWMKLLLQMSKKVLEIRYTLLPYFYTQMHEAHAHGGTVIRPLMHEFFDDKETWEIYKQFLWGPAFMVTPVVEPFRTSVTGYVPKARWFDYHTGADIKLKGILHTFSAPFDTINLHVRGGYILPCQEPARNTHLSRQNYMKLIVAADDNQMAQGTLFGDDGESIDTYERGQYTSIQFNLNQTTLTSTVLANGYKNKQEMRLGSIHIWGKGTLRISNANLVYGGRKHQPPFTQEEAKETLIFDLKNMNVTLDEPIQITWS
T3 sequence (P23739 1-1013 partner limits assumed): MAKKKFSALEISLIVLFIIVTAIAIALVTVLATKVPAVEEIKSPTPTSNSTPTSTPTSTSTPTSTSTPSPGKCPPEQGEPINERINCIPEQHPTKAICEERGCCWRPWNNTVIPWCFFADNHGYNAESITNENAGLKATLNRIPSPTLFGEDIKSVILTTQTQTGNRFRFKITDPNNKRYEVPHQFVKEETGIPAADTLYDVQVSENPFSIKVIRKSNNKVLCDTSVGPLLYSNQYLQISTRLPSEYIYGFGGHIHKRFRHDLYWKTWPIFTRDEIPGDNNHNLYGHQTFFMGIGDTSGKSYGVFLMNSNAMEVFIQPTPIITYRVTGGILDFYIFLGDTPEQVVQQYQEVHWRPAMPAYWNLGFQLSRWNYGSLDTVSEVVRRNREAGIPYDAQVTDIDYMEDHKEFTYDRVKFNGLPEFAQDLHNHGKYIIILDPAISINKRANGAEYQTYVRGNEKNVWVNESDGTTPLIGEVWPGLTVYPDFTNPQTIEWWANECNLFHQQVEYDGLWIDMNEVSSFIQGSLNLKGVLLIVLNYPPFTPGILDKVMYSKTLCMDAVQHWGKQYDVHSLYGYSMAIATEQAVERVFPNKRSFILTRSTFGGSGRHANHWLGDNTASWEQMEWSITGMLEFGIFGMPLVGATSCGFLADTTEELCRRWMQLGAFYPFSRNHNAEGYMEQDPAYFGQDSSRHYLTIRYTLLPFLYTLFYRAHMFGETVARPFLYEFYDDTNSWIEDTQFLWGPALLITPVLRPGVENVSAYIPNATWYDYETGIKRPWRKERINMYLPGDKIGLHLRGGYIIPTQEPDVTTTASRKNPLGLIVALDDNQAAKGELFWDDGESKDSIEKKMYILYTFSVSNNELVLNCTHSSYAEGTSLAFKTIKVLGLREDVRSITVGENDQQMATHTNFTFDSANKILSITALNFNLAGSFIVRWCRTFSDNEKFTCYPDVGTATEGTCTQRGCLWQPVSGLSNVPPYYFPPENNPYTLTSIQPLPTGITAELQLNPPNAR
T1 sequence (P35573 whole entry): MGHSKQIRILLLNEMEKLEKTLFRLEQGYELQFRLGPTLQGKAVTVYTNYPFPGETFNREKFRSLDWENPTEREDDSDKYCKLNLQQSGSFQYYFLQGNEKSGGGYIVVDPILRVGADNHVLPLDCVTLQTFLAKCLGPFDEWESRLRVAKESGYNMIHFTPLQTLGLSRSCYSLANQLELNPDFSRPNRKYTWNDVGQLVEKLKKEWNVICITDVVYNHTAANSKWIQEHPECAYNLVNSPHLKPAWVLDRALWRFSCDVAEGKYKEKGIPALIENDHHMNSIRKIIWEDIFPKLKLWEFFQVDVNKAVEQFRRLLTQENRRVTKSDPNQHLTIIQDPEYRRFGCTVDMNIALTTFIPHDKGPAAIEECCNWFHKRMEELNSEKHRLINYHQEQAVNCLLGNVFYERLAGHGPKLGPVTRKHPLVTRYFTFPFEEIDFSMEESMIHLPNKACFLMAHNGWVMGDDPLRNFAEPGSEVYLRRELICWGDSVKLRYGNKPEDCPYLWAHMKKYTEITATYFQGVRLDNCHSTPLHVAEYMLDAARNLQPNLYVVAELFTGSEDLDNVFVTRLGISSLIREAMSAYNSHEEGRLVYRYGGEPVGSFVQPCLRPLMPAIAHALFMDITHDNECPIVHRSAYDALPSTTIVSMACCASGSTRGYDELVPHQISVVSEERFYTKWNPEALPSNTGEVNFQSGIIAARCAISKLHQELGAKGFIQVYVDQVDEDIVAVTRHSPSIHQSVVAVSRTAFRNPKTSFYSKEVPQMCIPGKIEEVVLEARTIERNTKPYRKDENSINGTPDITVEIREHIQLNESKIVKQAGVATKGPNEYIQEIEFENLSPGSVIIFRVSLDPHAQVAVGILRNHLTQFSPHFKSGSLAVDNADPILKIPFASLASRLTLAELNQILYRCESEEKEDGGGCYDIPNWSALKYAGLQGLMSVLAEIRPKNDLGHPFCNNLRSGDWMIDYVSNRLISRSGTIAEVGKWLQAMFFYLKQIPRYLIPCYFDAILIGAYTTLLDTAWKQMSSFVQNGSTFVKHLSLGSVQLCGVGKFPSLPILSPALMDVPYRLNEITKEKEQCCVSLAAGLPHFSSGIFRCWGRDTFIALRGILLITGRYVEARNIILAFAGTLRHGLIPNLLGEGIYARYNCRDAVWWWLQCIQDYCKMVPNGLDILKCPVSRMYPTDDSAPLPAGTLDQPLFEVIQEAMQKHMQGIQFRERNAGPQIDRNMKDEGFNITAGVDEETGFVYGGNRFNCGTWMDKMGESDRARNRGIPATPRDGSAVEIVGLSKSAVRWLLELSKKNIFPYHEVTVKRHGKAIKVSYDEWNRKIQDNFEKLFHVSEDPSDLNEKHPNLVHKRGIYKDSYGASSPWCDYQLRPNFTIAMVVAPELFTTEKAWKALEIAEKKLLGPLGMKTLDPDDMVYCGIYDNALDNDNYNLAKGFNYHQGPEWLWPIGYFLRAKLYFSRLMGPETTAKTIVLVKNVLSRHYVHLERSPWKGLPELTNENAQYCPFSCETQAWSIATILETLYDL

## OC[C@@H]1[C@@H](O)[C@H](O)[C@@H](O)CN1CCCCCOCC12CC3CC(CC(C3)C1)C2 [AMP-DNM, N-(5-adamantane-1-yl-methoxy-pentyl)deoxynojirimycin]
Debranching enzyme
  IC50: > 500 µM
lactase
  IC50: 18000 µM
[1]; after 2 weeks treatment, particularly ob-/ob- mice at highest dose
  urinary glucose: major reduction
[1]; normal mice
  blood glucose: small reduction
[1]; [8]
  blood glucose: reductions
  water intake: reductions
[2]; mouse, plasma, oral, 4 weeks 100 mg/kg orally, enzymatic method, read-out: plasma levels
  concentration at 4 weeks: ~1000 nM
[2]; oral administration
  brain penetration: poorly penetrates in the brain
[3]; adipocytes
  surface expression of GLUT4: increased
[3]; cultured adipocytes and muscle cells
  deoxyglucose uptake: increased
[4]
  overt pathology in animal studies: does not result in any overt pathology
  tolerability in animal studies: well tolerated
Surface GM3
  IC50: ~0.25 µM
sucrase; [9]
  IC50: 4500 µM
[5]
  metabolism: lack of metabolism
[5]; po
  oral bioavailability: good oral bioavailability
FVB and C57BL/6J mice; TLC, brain
  brain gangliosides or sulfatide: No changes
FVB and C57BL/6J mice; TLC, liver, 2 wks 100 mg/kg
  liver GM3: marked reduction
FVB and C57BL/6J mice; TLC, muscle
  muscle GM3: reduction
FVB and C57BL/6J mice; brain, 100 mg/kg oral
  brain galactosylceramide concentration: No changes
FVB and C57BL/6J mice; liver, 100 mg/kg oral
  liver glucosylceramide reduced by: 80%
FVB and C57BL/6J mice; liver, muscle and brain, 100 mg/kg oral
  ceramide concentration: No changes
FVB and C57BL/6J mice; muscle, 100 mg/kg oral
  muscle glucosylceramide reduced by: 50%

## C[C@H]1O[C@H](O[C@H]2[C@H](O)[C@@H](O)[C@@H](O[C@H]3[C@H](O)[C@@H](O)C(O)O[C@@H]3CO)O[C@@H]2CO)[C@H](O)[C@@H](O)[C@@H]1N[C@H]1C=C(CO)[C@@H](O)[C@H](O)[C@H]1O (some centres unmarked) [Acarbose]
[6]
  tolerability (intestinal complaints): not very well tolerated

## CCCCN1C[C@H](O)[C@@H](O)[C@H](O)[C@H]1CO [N-butyl-deoxynojirimycin]
[7]
  Ki glycan trimming α-glucosidase in vitro: sub-μM
sucrase; [10]
  IC50: 500 µM

## OCCN1C[C@H](O)[C@@H](O)[C@H](O)[C@H]1CO [N-hydroxyethyl-deoxynojirimycin]
[6]
  tolerability (intestinal complaints): not very well tolerated
sucrase; [9]
  IC50: < 5000 µM
sucrase; [10]
  IC50: 100 µM
